Measured values published in patent US7847063B2 (Sanwa Kagaku Kenkyusho Co., Ltd., priority 2003, dated 2010).
Ends that are not written are not given here.

Key:
[1] = tested on: Langerhans islets; assay: Insulin secretion-promoting activity in isolated Langerhans islets; format: cell-based, ICR mouse; conditions: 16.7 mM glucose, 37° C. 30 min, FIG. 13
Excerpt: Langerhans islets were extracted from ICR mouse pancreas with collagenase, 2 to 3 Langerhans islets were placed per well of 24-well plates, and cultured overnight.

[2] = Hypoglycemic effect in oral glucose tolerance test (OGTT) by subcutaneous administration; format: in vivo; conditions: mice fasted overnight, 1 g/kg glucose orally, peptide 5, 20 μg/kg dorsal subcutaneously; FIG. 14
Experimental: Physiological saline was administered to the control group. Before loading glucose and 20, 60, 120 min after loading, blood was collected chronologically from subocular venous plexus, to measure blood glucose level. […] Moreover, the action continued until 120 min after the administration (FIG. 15).

[3] = molecular target: T1, trypsin (Sus scrofa, UniProt P00761); conditions: pH 7.8
Experimental: 5 μl of 500 μg/ml trypsin solution (Promega: Cat. No. V5113) was added to 100 μl of this solution, and reacted at 37° C. for 1 hour. The reaction was stopped by adding 1200 μl of 71.5% ethanol (final 65%). The supernatant was collected by centrifugation at 15,000 rpm at 4° C. for 5 min, and evaporation was carried out. The dried solids were dissolved in distilled water and used for measuring activity.
The reaction was stopped by adding 1200 μl of 71.5% ethanol (final 65%). The supernatant was collected by centrifugation of 15,000 rpm at 4° C. for 5 min and evaporation was carried out. The dried solids were dissolved in distilled water and used for measuring the activity.

[4] = molecular target: DPP-IV (Sus scrofa, UniProt P22411)
[5] = molecular target: T2, human GLP-1 receptor (Homo sapiens, UniProt P43220); assay: Cyclic AMP production activity in CHO-K1 cells expressing human GLP-1 receptors; format: cell-based; conditions: compared with native GLP-1; 37° C. 30 min; FIG. 7
T2 construct: expressed in transfected cells; host or cells: Chinese hamster ovary CHO-K1 cells
Experimental: 10 μl of 5N hydrochloric acid was added to the buffer to stop the incubation.

[6] = molecular target: T1, trypsin
Experimental: To this diluent, 6 μl of 83 μg/ml trypsin solution (Promega: Cat. No. V5113) was added. The resultant was reacted at 37° C. for 1, 2, 4, 6 or 20 hours, and then the reaction was stopped by adding 1200 μl of 71.5% ethanol (final 65%). The supernatant was collected by centrifugation at 15,000 rpm at 4° C. for 5 min and evaporation was carried out. The dried solids were dissolved in distilled water and the activity was measured.

T1 sequence (P00761 9-231): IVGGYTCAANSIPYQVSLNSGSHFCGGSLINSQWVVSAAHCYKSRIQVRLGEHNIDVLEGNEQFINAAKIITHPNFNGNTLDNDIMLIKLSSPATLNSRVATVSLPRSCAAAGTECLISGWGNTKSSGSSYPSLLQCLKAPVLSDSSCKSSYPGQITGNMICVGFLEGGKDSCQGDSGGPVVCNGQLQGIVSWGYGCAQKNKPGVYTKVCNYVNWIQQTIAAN
DPP-IV, sequence (P22411 whole entry): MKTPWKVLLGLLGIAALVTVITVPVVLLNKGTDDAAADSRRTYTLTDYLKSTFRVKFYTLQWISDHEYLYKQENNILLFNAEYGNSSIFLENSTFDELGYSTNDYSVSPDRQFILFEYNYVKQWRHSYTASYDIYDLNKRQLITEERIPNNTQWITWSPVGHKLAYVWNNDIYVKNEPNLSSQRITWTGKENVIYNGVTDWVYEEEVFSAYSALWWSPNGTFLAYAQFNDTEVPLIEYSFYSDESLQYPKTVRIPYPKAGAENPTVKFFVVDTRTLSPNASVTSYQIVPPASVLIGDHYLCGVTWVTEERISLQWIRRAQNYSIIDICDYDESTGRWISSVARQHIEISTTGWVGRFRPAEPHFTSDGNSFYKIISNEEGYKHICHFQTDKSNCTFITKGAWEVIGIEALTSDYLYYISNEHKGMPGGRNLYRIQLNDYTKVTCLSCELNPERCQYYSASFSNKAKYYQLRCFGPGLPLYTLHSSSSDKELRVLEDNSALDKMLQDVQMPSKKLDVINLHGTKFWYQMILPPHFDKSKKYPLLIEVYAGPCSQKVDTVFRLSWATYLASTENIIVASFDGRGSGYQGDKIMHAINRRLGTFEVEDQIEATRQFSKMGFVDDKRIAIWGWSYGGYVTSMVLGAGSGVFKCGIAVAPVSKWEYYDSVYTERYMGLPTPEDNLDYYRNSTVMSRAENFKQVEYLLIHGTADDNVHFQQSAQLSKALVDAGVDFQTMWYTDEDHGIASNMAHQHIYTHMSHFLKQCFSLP
T2 sequence (P43220 24-463): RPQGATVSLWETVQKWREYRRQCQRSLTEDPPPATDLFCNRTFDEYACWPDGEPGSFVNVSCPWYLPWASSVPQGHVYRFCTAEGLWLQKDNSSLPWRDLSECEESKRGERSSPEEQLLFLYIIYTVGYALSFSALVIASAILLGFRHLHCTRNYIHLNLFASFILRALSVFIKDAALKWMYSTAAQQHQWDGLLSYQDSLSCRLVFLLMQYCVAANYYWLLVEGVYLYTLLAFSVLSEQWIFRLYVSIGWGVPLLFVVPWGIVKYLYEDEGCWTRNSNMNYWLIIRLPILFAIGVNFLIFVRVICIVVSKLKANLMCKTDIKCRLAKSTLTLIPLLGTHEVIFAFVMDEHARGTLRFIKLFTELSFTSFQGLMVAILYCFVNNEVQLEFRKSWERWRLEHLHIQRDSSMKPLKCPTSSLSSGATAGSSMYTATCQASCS

HSEGTFTSDVSSYLEGQAAQEFIAWLVNGR-OH [[Ser^8, Gln^26, Asn^34]-GLP-1 (7-36), [Ser^8, Gln^26, Asn^34]-GLP-1 (7-36)]
insulin secretion-promoting activity [1]: Amount-dependent insulin secretion-promoting activity | insulin secretion-promoting activity at high concentration ([1]; high concentration): strong insulin secretion-promoting activity | peak value of blood glucose increase / hypoglycemic action [2]: strong action | variation in activity by trypsin treatment (trypsin resistance) [3]: no variation in activity by trypsin treatment | DPP-IV resistance [4]: obvious DPP-IV resistance

HAEGTFTSDVSSYLEGQAAQEFIAWLVNGR-NH2 [[Gln^26, Asn^34]-GLP-1 (7-36 amide)]
cyclic AMP production activity [5]: same level of cyclic AMP production activity as native GLP-1 | activity before and after trypsin treatment (trypsin resistance) [3]: no difference of activity before and after trypsin treatment

GLP-1 (7-36 amide) (HAEGTFTSDVSSYLEGQAAKEFIAWLVKGR-NH2) [native GLP-1, made by solid phase synthesis, reference compound]
insulin secretion-promoting activity [1]: Amount-dependent insulin secretion-promoting activity

[Ser^8, Gln^26, Asp^34]-GLP-1 (7-36)
insulin secretion-promoting activity [1]: Amount-dependent insulin secretion-promoting activity | variation in activity by trypsin treatment (trypsin resistance) [3]: no variation in activity by trypsin treatment | cyclic AMP production activity versus trypsin treatment time [6]: the activity was maintained regardless of the trypsin treatment time | DPP-IV resistance [4]: obvious DPP-IV resistance
